The conditions of the data set: 100 kPa, Liquid, capillary rise.

This passage reports interfacial tension results from the NIST ThermoML archive (doi:10.1016/j.fluid.2014.06.018).

Numbers after ± are expanded uncertainties.

For `CCCCCCCO` [heptan-1-ol] + O, the interfacial tension is on record as 7.28 ± 0.08 mN/m (302.15 K); 7.47 ± 0.08 mN/m (313.15 K); 7.61 ± 0.08 mN/m (323.15 K); 7.64 ± 0.08 mN/m (333.15 K); 7.59 ± 0.08 mN/m (343.15 K).
As to `CCCCCCC` [heptane] + O, the interfacial tension is, setting by setting: (298.15 K) 50.6 ± 0.6 mN/m; (304.15 K) 50.1 ± 0.6 mN/m; (314.15 K) 49.3 ± 0.6 mN/m; (324.65 K) 48.4 ± 0.4 mN/m; (335.65 K) 47.4 ± 0.4 mN/m.
On to `CCCCCC` [hexane] + O, for which the interfacial tension reads like this: (298.15 K) 50 ± 0.6 mN/m; (302.15 K) 49.7 ± 0.6 mN/m; (315.65 K) 48.5 ± 0.6 mN/m; (322.15 K) 47.9 ± 0.6 mN/m; (333.15 K) 47 ± 0.4 mN/m; (343.15 K) 46.2 ± 0.4 mN/m.
For the compound `CCCCCC(=O)O` [hexanoic acid] + O, the interfacial tension runs as follows: (304.65 K) 5.57 ± 0.09 mN/m; (313.65 K) 5.19 ± 0.08 mN/m; (324.15 K) 4.62 ± 0.08 mN/m; (333.15 K) 4.11 ± 0.09 mN/m; (343.15 K) 3.48 ± 0.08 mN/m.
Consider `CCCCCCCCC` [nonane] + O, for which the interfacial tension (303.15 K) was determined as 50.9 ± 0.6 mN/m; the interfacial tension (313.15 K) came out at 50 ± 0.6 mN/m; the interfacial tension (324.15 K) is reported as 49.2 ± 0.6 mN/m; the interfacial tension (333.65 K) is given as 48.4 ± 0.4 mN/m; the interfacial tension (343.15 K) amounted to 47.6 ± 0.4 mN/m.
As for `CCCCCCCC` [octane] + O, the interfacial tension is, setting by setting: (312.65 K) 50.5 ± 0.6 mN/m; (323.65 K) 49.7 ± 0.6 mN/m; (330.65 K) 48.8 ± 0.6 mN/m; (333.15 K) 48 ± 0.4 mN/m; (343.15 K) 47.1 ± 0.4 mN/m.
